{
  "source": "patent US3956328A",
  "about": "“S-triazolo(1,5-a)pyridine derivative” (Kyorin Seiyaku Kabushiki Kaisha, priority 1973, dated 1976)",
  "key": {"[1]": {"system": "guinea pig ileum", "assay": "Schultz-Dale reaction in guinea pig ileum sensitized actively with egg albumin", "conditions": "antigen egg albumin", "procedure": "Male guinea pigs are actively sensitized and their ileum preparations are treated by Schultz-Dales method (J. Pharmacol. Exp. Ther., 4, 167, 1913). […] These preceeding pharmacological properties of the present compound are due to triazolo [1,5-a]pyridine."}, "[2]": {"system": "heterologous PCA in guinea pigs", "assay": "Heterologous passive cutaneous anaphylaxis (PCA) in guinea pigs", "assay_type": "in vivo, guinea pig", "conditions": "25 mg/kg po, 30 min. before challenge; rabbit antiserum to egg albumin", "procedure": "Male guinea pigs are passively sensitized by the intradermal injection of rabbit antiserum to egg albumin and challenged by the intravenous injection of egg albumin 4 hrs. after the sensitization. The test compounds are orally given 30 min. before the challenge."}, "[3]": {"system": "BSA induced asthma in guinea pigs", "assay": "Inhibitory action on BSA-induced (experimentally allergic) asthma attack in passively sensitized guinea pigs", "assay_type": "in vivo, guinea pig", "conditions": "for p (statistical significance vs non treatment) / z1 (statistical value vs non treatment): severity; for z1 (statistical value vs non treatment): Mann and Whitney U test", "procedure": "The present compound is studied on asthma attacks induced by the antigen-antibody reaction in guinea pigs. The guinea pigs are sensitized passively by the injection of 0.1 to 0.3 ml /100g body weight of rabbit antiserum to BSA (bovine serum albumin) into the ear vein. Forty six hours after passive sensitization, the guinea pigs are orally given the tested compounds. Two hours after oral administration, the asthma attack is provoked by an aerosol injection (0.1 ml/min.) of 1% BSA solution in physiological saline into the plastic chamber in which the testing guinea pig is placed. The symptoms of the asthma attack are observed for 10 minutes and scored on the following shock indices. The shock indices are examined by the shock grades, No. of collapsed guinea pigs/No. of used animals and survival rate.\nThe shock grades are as follows:\n1 slight stimulation of expiration\n2 stimulation of expiration (labored expiration)\n3 attack of singultation\n4 the strongest attack of collapse and struggle\nbut recovery from collapse within 5 minutes\n5 recovery from collapse within 5 to 10 minutes\n6 interruption of expiration to death within 10\n*Statistical comparisons were carried out with the Mann and Whitneys' U\nz1 : The statistical value between non treatment and each tested\nz2 : The statistical value between the present compound and […]"}, "[4]": {"system": "histamine-induced asthma attack", "assay": "Inhibitory action on histamine-induced asthma attack in guinea pigs", "assay_type": "in vivo, guinea pig", "conditions": "for z1 (statistical value): Mann and Whitney U test", "protocol": "Inhibitory actions on histamine-induced asthma attack: Male guinea pigs, of about 300 g body weight are used. Asthma attack is provoked by an aerosol of 0.2% histamine dihydrochloride solution in physiological saline for 10 minutes. The inhibitory actions are examined by shock grades, No. of collapsed guinea pigs/No. of provoked guinea pigs and survival rate. The tested compounds are orally given 2 hrs. prior to spraying of histamine solution.\nA/B: No. of collapsed guinea pigs/ No. of provoked guinea pigs.\nStatistical comparisons were carried out with the Mann and Whtineys' U"}, "[5]": {"system": "ddN mice", "conditions": "cited from earlier work"}, "[6]": {"system": "guinea pig tracheal chain strips", "assay": "Anti histaminic action: histamine-induced contraction of guinea pig tracheal chain strips", "conditions": "4×10^^-5 M; Tyrodes solution"}, "[7]": {"assay": "Solubility and hygroscopicity of the salt", "assay_type": "physicochemical"}, "[8]": {"conditions": "antiserum 0.1 ml/100 g, 0.5 mg/kg p.o."}, "[9]": {"conditions": "antiserum 0.1 ml/100 g, 1.0 mg/kg p.o."}, "[10]": {"conditions": "antiserum 0.1 ml/100 g, 5.0 mg/kg p.o."}, "[11]": {"conditions": "antiserum 0.2 ml/100 g, 5 mg/kg p.o."}, "[12]": {"conditions": "antiserum 0.3 ml/100 g, 5 mg/kg p.o."}},
  "note": "Structures can show the parent of a compound that is named as a salt.",
  "data": [
    {"smiles": "c1ccc(C(c2ccccc2)N2CCN(CCCc3nc4ccccn4n3)CC2)cc1", "note": "[the present compound HCl salt]", "values": [
      {"measurement": "Inhibition % of Schultz-Dale reaction", "setting": "[1]; 2×10^^-7 M", "value": 32.2, "unit": "%"},
      {"measurement": "Inhibition % of Schultz-Dale reaction", "setting": "[1]; 3×10^^-7 M", "value": 55.6, "unit": "%"},
      {"measurement": "Inhibition % of Schultz-Dale reaction", "setting": "[1]; 5×10^^-7 M", "value": 60.1, "unit": "%"}
    ]},
    {"smiles": "CN1CCCN(C(c2ccccc2)c2ccc(Cl)cc2)CC1", "note": "(stereo not drawn) [homochlorcyclizine, reference compound]", "values": [
      {"measurement": "Inhibition % of extravasation of blue dye", "setting": "[2]", "value": 41.7, "unit": "%"},
      {"measurement": "A/B: No. of collapsed / No. of provoked guinea pigs", "setting": "[3]; [8]", "value": "4/6"},
      {"measurement": "A/B: collapsed guinea pigs, percentage", "setting": "[3]; [8]", "value": 66.7, "unit": "%"},
      {"measurement": "Survival rate (animals)", "setting": "[3]; [8]", "value": "5/6"},
      {"measurement": "Survival rate, percentage", "setting": "[3]; [8]", "value": 83.3, "unit": "%"},
      {"measurement": "A/B: No. of collapsed / No. of provoked guinea pigs", "setting": "[3]; [9]", "value": "6/10"},
      {"measurement": "A/B: collapsed guinea pigs, percentage", "setting": "[3]; [9]", "value": 60, "unit": "%"},
      {"measurement": "Survival rate (animals)", "setting": "[3]; [9]", "value": "10/10"},
      {"measurement": "Survival rate, percentage", "setting": "[3]; [9]", "value": 100, "unit": "%"},
      {"measurement": "A/B: No. of collapsed / No. of provoked guinea pigs", "setting": "[3]; [10]", "value": "1/6"},
      {"measurement": "A/B: collapsed guinea pigs, percentage", "setting": "[3]; [10]", "value": 16.7, "unit": "%"},
      {"measurement": "Survival rate (animals)", "setting": "[3]; [10]", "value": "6/6"},
      {"measurement": "Survival rate, percentage", "setting": "[3]; [10]", "value": 100, "unit": "%"},
      {"measurement": "A/B: No. of collapsed / No. of provoked guinea pigs", "setting": "[3]; [11]", "value": "4/6"},
      {"measurement": "A/B: collapsed guinea pigs, percentage", "setting": "[3]; [11]", "value": 66.7, "unit": "%"},
      {"measurement": "Survival rate (animals)", "setting": "[3]; [11]", "value": "6/6"},
      {"measurement": "Survival rate, percentage", "setting": "[3]; [11]", "value": 100, "unit": "%"},
      {"measurement": "A/B: No. of collapsed / No. of provoked guinea pigs", "setting": "[3]; [12]", "value": 1.5},
      {"measurement": "A/B: collapsed guinea pigs, percentage", "setting": "[3]; [12]", "value": 20, "unit": "%"},
      {"measurement": "Survival rate (animals)", "setting": "[3]; [12]", "value": "5/5"},
      {"measurement": "Survival rate, percentage", "setting": "[3]; [12]", "value": 100, "unit": "%"},
      {"measurement": "p (statistical significance vs non treatment)", "setting": "[3]; [8]", "value": "< 0.02"},
      {"measurement": "z1 (statistical value vs non treatment)", "setting": "[3]; [8]", "value": 2.235},
      {"measurement": "p (statistical significance vs non treatment)", "setting": "[3]; [9]", "value": "< 0.001"},
      {"measurement": "z1 (statistical value vs non treatment)", "setting": "[3]; [9]", "value": 3.368},
      {"measurement": "p (statistical significance vs non treatment)", "setting": "[3]; [10]", "value": "< 0.001"},
      {"measurement": "z1 (statistical value vs non treatment)", "setting": "[3]; [10]", "value": 3.576},
      {"measurement": "p (statistical significance vs non treatment)", "setting": "[3]; [11]", "value": "< 0.0001"},
      {"measurement": "z1 (statistical value vs non treatment)", "setting": "[3]; [11]", "value": 3.993},
      {"measurement": "p (statistical significance vs non treatment)", "setting": "[3]; [12]", "value": "< 0.002"},
      {"measurement": "z1 (statistical value vs non treatment)", "setting": "[3]; [12]", "value": 3.23},
      {"measurement": "A/B: No. of collapsed / No. of provoked guinea pigs", "setting": "[4]; 2.50 mg/kg p.o.", "value": "5/11"},
      {"measurement": "A/B: collapsed guinea pigs, number in parentheses (percentage)", "setting": "[4]; 2.50 mg/kg p.o.", "value": 45.5},
      {"measurement": "Survival rate (animals)", "setting": "[4]; 2.50 mg/kg p.o.", "value": "11/11"},
      {"measurement": "Survival rate, number in parentheses (percentage)", "setting": "[4]; 2.50 mg/kg p.o.", "value": 100},
      {"measurement": "z1 (statistical value)", "setting": "[4]; 2.50 mg/kg p.o. vs non treatment 2 (so in the source)", "value": "> 5"},
      {"measurement": "significance of difference from non treatment 2 (so in the source)", "setting": "[4]; 2.50 mg/kg p.o., homochlorcyclizine", "value": "markedly significant difference"},
      {"measurement": "A/B: No. of collapsed / No. of provoked guinea pigs", "setting": "[4]; 10.0 mg/kg p.o.", "value": "1/6"},
      {"measurement": "A/B: collapsed guinea pigs, number in parentheses (percentage)", "setting": "[4]; 10.0 mg/kg p.o.", "value": 16.7},
      {"measurement": "Survival rate (animals)", "setting": "[4]; 10.0 mg/kg p.o.", "value": "6/6"},
      {"measurement": "Survival rate, number in parentheses (percentage)", "setting": "[4]; 10.0 mg/kg p.o.", "value": 100},
      {"measurement": "z1 (statistical value)", "setting": "[4]; 10.0 mg/kg p.o. vs non treatment 1 (so in the source)", "value": 3.315},
      {"measurement": "p (significant difference from non treatment 1)", "setting": "[4]; 10.0 mg/kg p.o., homochlorcyclizine", "value": 0.0005},
      {"measurement": "acute LD50 (reported for standard drug)", "setting": "[5]", "value": 353, "unit": "mg/kg"},
      {"measurement": "inhibitory rate on histamine-induced contraction", "setting": "[6]", "value": 74, "unit": "%"}
    ]},
    {"smiles": "c1ccc(C(c2ccccc2)N2CCN(CCCc3nc4ccccn4n3)CC2)cc1", "note": "[dihydrochloride salt]", "values": [
      {"measurement": "solubility in alcohols", "setting": "[7]; alcohols", "value": "soluble"},
      {"measurement": "hygroscopicity", "setting": "[7]; fine needles from ethanol-petroleum ether", "value": "hydroscopic"},
      {"measurement": "solubility in water", "setting": "[7]; water", "value": "soluble"}
    ]}
  ]
}
